Holding throughout (type): biochemical
Assay [1] concerns the target T1, PglC (Cj) (Campylobacter jejuni, UniProt Q0P9D0).
T1 sequence (Q0P9D0 1-200): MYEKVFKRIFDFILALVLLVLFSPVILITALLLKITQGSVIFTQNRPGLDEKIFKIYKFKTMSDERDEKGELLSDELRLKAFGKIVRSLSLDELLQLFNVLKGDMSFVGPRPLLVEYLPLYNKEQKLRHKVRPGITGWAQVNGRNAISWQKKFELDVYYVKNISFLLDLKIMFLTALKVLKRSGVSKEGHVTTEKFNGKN
In words: PGT activity assay with UDP-diNAcBac, percent inhibition at […]. The following applies: read-out: % inhibition at 100 μM.

The target in assay [2] is T1, PglC (Cj).
In assay [3] the target is T1, PglC (Cj). As to the kind of experiment: PGT activity assay with UDP-diNAcBac, percent inhibition at […]. Particulars: read-out: % inhibition at 100 μM. The source holds these as a separate data set.
The target in a further assay is T2, WecA (Tm) (Thermotoga maritima, UniProt Q9X1N5).
T2 sequence (Q9X1N5 1-291): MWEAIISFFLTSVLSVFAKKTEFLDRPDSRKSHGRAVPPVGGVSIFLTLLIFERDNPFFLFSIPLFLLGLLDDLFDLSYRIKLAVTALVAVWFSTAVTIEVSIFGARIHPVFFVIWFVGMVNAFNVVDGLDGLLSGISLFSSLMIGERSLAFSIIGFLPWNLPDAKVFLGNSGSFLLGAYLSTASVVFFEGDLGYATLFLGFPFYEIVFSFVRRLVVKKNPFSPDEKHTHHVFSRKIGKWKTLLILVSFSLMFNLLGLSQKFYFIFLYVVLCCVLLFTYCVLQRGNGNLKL
In words: PGT activity assay.

In article PMC10922802 (Journal of the American Chemical Society, 2023) one finds inhibition and IC50 data, which are given here for four compounds.

Read-outs that look alike come from different tables or passages of the source.

In general, inhibition refers to the relative decrease from the control value, in per cent. On to `O=c1ccn([C@@H]2O[C@H](COP(=O)(O)C(F)(F)P(=O)(O)O)[C@@H](O)[C@H]2O)c(=O)[nH]1` [compound 3, H-CF2], for which the inhibition at 100 µM at PglC (Cj) [1] worked out at 33 ± 6%.

For orientation: IC50 means the point on the concentration scale where inhibition reaches its midpoint. High values mean a need for much substance, low ones inhibition by little substance. With `CC(=O)N[C@H]1[C@@H](OP(=O)(O)C(F)(F)P(=O)(O)OC[C@H]2O[C@@H](n3ccc(=O)[nH]c3=O)[C@H](O)[C@@H]2O)O[C@H](CO)[C@@H](O)[C@@H]1O` [compound 4, α-GlcNAc-CF2], it took 32 ± 5.3 µM to reach half-maximal inhibition against PglC (Cj) [2] (IC50).

In the case of `CC(=O)N[C@H]1[C@@H](OP(=O)(O)[C@@H](F)P(=O)(O)OC[C@H]2O[C@@H](n3ccc(=O)[nH]c3=O)[C@H](O)[C@@H]2O)O[C@H](CO)[C@@H](O)[C@@H]1O` [compound 7, α-GlcNAc-(S)-CHF], the inhibition at 100 µM at PglC (Cj) [3] stood at 52 ± 10%.

With `CC(=O)N[C@H]1[C@@H](OP(=O)(O)CP(=O)(O)OC[C@H]2O[C@@H](n3ccc(=O)[nH]c3=O)[C@H](O)[C@@H]2O)O[C@H](CO)[C@@H](O)[C@@H]1O` [compound 11, α-GlcNAc-CH2], the inhibition at 100 µM at PglC (Cj) [3] is 28 ± 12%. Also, at WecA (Tm), half-maximal inhibition (IC50) required 41 ± 10 µM.
